Reference: US10703764B2, “Benzopiperazine compositions as BET bromodomain inhibitors” (FORMA Therapeutics, Inc., priority 2013, dated 2020)
Where two headings read alike, the source gives them in different places.

Experiments:
BRD4 BD1 = target: T1, BRD4 BD1 (Homo sapiens, UniProt O60885); assay: AlphaScreen binding assay, BRD4 Bromodomain 1
T1 construct: made in house
In short: (§1)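 An AlphaScreen competition format was used with His-BRD4 BD1 or BD2 and biotin-H4 K5/8/12/16-acetyl peptide, each at matched final levels of 50 nM (BD1) or 100 nM (BD2). Incubation in HEPES/NaCl buffer with 0.1% BSA and 0.01% Triton X-100 ran ≥1 h before IC50 determination.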

MV4-11 cells = assay: Oncology cell growth assay (3-day proliferation, CellTiter-Glo); assay type: cell-based; conditions: Homo sapiens, AML cell line MV4-11, 72 hours, compounds grouped by IC50 range, read-out: MV4-11 IC50 (inhibition of proliferation, gIC50)
In short: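 72 h, 37° C, 5% CO2; MV4-11, 3000 cells/well, RPMI 1640 + 10% FBS. Compound final 10, 3.3, 1.1, 0.37, 0.12, 0.041, 0.013, 0.0045 μM. Readout CellTiter-Glo luminescence; gIC50 by 4-parameter logistic fit, normalised to DMSO and no-cell background.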

BRD4 BD2 = target: T2, BRD4 BD2 (Homo sapiens, UniProt O60885); assay: AlphaScreen binding assay, BRD4 Bromodomain 2
T2 construct: made in house
In short: as §1

Structure (SMILES) | IC50 (BRD4 BD1) [nM] | IC50 (MV4-11 cells; MV4-11, 72 h) [nM] | IC50 (BRD4 BD2) [nM] | IC50 (MV4-11 cells) [nM]
CC(=O)N1c2ccc(-c3ccc(S(=O)(=O)NC(C)(C)C)cc3)cc2N(C(=O)C2CCC2)C[C@@H]1C [Example I-1128] | 1000 to 10000 | 100 to 500 | 50 to 500 | 
CCOC(=O)N1C[C@H](C)N(C(C)=O)c2ccc(-c3ccc(S(=O)(=O)NC(C)(C)C)cc3)cc21 [Example I-1129] | 1000 to 10000 | 100 to 500 | 50 to 500 | 
CC(=O)N1c2ccc(-c3ccc(N4CCCC4=O)cc3)cc2N(C(=O)C2CC2)C[C@@H]1C [Example I-1131] | 1000 to 10000 | 100 to 500 | 50 to 500 | 
CC(=O)N1c2ccc(-c3ccc(N4CCCC4=O)cc3)cc2N(C(=O)C2CCC2)C[C@@H]1C [Example I-1132] | 1000 to 10000 | 100 to 500 | 50 to 500 | 
CCOC(=O)N1C[C@H](C)N(C(C)=O)c2ccc(-c3ccc(N4CCCC4=O)cc3)cc21 [Example I-1133] | 1000 to 10000 | 100 to 500 | 50 to 500 | 
COc1ccc(-c2ccc3c(c2)N(C(=O)C2CC2)C[C@H](C)N3C(C)=O)cc1NS(C)(=O)=O [Example I-1139] | 1000 to 10000 | 100 to 500 | 50 to 500 | 
COc1ccc(-c2ccc3c(c2)N(C(=O)C2CCC2)C[C@H](C)N3C(C)=O)cc1NS(C)(=O)=O [Example I-1140] | 1000 to 10000 | 100 to 500 | 50 to 500 | 
CC(=O)N1c2ccc(-c3cccc(NS(=O)(=O)N(C)C)c3)cc2N(C(=O)C2CC2)C[C@@H]1C [Example I-1143] | 1000 to 10000 | 100 to 500 | 50 to 500 | 
CC(=O)N1c2ccc(-c3cccc(NS(=O)(=O)N(C)C)c3)cc2N(C(=O)C2CCC2)C[C@@H]1C [Example I-1144] | 1000 to 10000 | 100 to 500 | 50 to 500 | 
CCOC(=O)N1C[C@H](C)N(C(C)=O)c2ccc(-c3cccc(NS(=O)(=O)N(C)C)c3)cc21 [Example I-1145] | 1000 to 10000 | > 500 | 50 to 500 | 
CC(=O)N1c2ccc(-c3cnn(C4CCNCC4)c3)cc2N(C(=O)Oc2ccc(F)cc2)C[C@@H]1C [Example I-1149] | 100 to 1000 |  | 50 to 500 | < 100
CC(=O)N1c2ccc(-c3cnn(C4CNC4)c3)cc2N(C(=O)Oc2ccc(F)cc2)C[C@@H]1C [Example I-1150] | 100 to 1000 |  | < 50 | 100 to 500
COC(=O)N1c2ccc(-c3cnn(C4CCNCC4)c3)cc2N(C(=O)Oc2ccc(F)cc2)C[C@@H]1C [Example I-1151] | 100 to 1000 |  | 50 to 500 | 100 to 500
CC(=O)N1c2ccc(-c3cccc(N4CCCS4(=O)=O)c3)cc2N(C(=O)C2CC2)C[C@@H]1C [Example I-1152] | 1000 to 10000 | 100 to 500 | 50 to 500 | 
CC(=O)N1c2ccc(-c3ccc(N4CCCS4(=O)=O)c(F)c3)cc2N(C(=O)C2CCC2)C[C@@H]1C [Example I-1154] | 1000 to 10000 | > 500 | 50 to 500 | 
CC(=O)N1c2ccc(-c3cccc(N4CCCS4(=O)=O)c3)cc2N(C(=O)C2CCC2)C[C@@H]1C [Example I-1161] | 1000 to 10000 | > 500 | 50 to 500 | 
CCOC(=O)N1C[C@H](C)N(C(C)=O)c2ccc(-c3cc(N4CCCS4(=O)=O)cc(C(F)(F)F)c3)cc21 [Example I-1165] | 1000 to 10000 | > 500 | 50 to 500 | 
CC(=O)N1c2ccc(-c3cc(N4CCCS4(=O)=O)cc(C(F)(F)F)c3)cc2N(C(=O)OC(C)C)C[C@@H]1C [Example I-1166] | 100 to 1000 | > 500 | 50 to 500 | 
COc1ccc(-c2ccc3c(c2)N(C(=O)C2CC2)C[C@H](C)N3C(C)=O)cc1N1CCCS1(=O)=O [Example I-1167] | 100 to 1000 | 100 to 500 | 50 to 500 | 
COc1ccc(-c2ccc3c(c2)N(C(=O)C2CCC2)C[C@H](C)N3C(C)=O)cc1N1CCCS1(=O)=O [Example I-1168] | 100 to 1000 | 100 to 500 | 50 to 500 | 
CCOC(=O)N1C[C@H](C)N(C(C)=O)c2ccc(-c3ccc(OC)c(N4CCCS4(=O)=O)c3)cc21 [Example I-1169] | 100 to 1000 | 100 to 500 | 50 to 500 | 
COc1ccc(-c2ccc3c(c2)N(C(=O)OC(C)C)C[C@H](C)N3C(C)=O)cc1N1CCCS1(=O)=O [Example I-1170] | 100 to 1000 | 100 to 500 | 50 to 500 | 
CC(=O)N1c2ccc(-c3ccc(NS(C)(=O)=O)c(C)c3)cc2N(C(=O)C2CC2)C[C@@H]1C [Example I-1171] | 100 to 1000 | 100 to 500 | 50 to 500 | 
CC(=O)N1c2ccc(-c3ccc(NS(C)(=O)=O)c(C)c3)cc2N(C(=O)C2CCC2)C[C@@H]1C [Example I-1172] | 100 to 1000 | 100 to 500 | 50 to 500 | 
CCOC(=O)N1C[C@H](C)N(C(C)=O)c2ccc(-c3ccc(NS(C)(=O)=O)c(C)c3)cc21 [Example I-1173] | 100 to 1000 | 100 to 500 | 50 to 500 | 
CC(=O)N1c2ccc(-c3ccc(NS(C)(=O)=O)c(C)c3)cc2N(C(=O)OC(C)C)C[C@@H]1C [Example I-1174] | 100 to 1000 | 100 to 500 | 50 to 500 | 
CC(=O)N1c2ccc(-c3ccc4c(c3)N(C)S(=O)(=O)N4)cc2N(C(=O)C2CC2)C[C@@H]1C [Example I-1175] | 100 to 1000 | > 500 | 50 to 500 | 
CC(=O)N1c2ccc(-c3ccc4c(c3)N(C)S(=O)(=O)N4)cc2N(C(=O)C2CCC2)C[C@@H]1C [Example I-1176] | 100 to 1000 | > 500 | < 50 | 

Now from value to molecule, other results behind:

IC50 (BRD4 BD1) [nM] | IC50 (MV4-11 cells; MV4-11, 72 h) [nM] | IC50 (BRD4 BD2) [nM] | Structure (SMILES) | IC50 (MV4-11 cells) [nM]
100 to 1000 | 100 to 500 | 50 to 500 | CC(=O)N1c2ccc(-c3ccc(S(=O)(=O)NC(C)(C)C)cc3)cc2N(C(=O)OC(C)C)C[C@@H]1C [Example I-1130] | 
100 to 1000 | 100 to 500 | 50 to 500 | CC(=O)N1c2ccc(-c3ccc(N4CCCC4=O)cc3)cc2N(C(=O)OC(C)C)C[C@@H]1C [Example I-1134] | 
100 to 1000 | 100 to 500 | 50 to 500 | CCS(=O)(=O)Nc1ccc(-c2ccc3c(c2)N(C(=O)C2CC2)C[C@H](C)N3C(C)=O)cc1 [Example I-1135] | 
100 to 1000 | 100 to 500 | 50 to 500 | CCS(=O)(=O)Nc1ccc(-c2ccc3c(c2)N(C(=O)C2CCC2)C[C@H](C)N3C(C)=O)cc1 [Example I-1136] | 
100 to 1000 | 100 to 500 | 50 to 500 | CCNS(=O)(=O)c1ccc(-c2ccc3c(c2)N(C(=O)OCC)C[C@H](C)N3C(C)=O)cc1 [Example I-1137] | 
100 to 1000 | 100 to 500 | 50 to 500 | CCS(=O)(=O)Nc1ccc(-c2ccc3c(c2)N(C(=O)OC(C)C)C[C@H](C)N3C(C)=O)cc1 [Example I-1138] | 
100 to 1000 | 100 to 500 | 50 to 500 | CCOC(=O)N1C[C@H](C)N(C(C)=O)c2ccc(-c3ccc(OC)c(NS(C)(=O)=O)c3)cc21 [Example I-1141] | 
100 to 1000 | 100 to 500 | 50 to 500 | COc1ccc(-c2ccc3c(c2)N(C(=O)OC(C)C)C[C@H](C)N3C(C)=O)cc1NS(C)(=O)=O [Example I-1142] | 
100 to 1000 | 100 to 500 | 50 to 500 | CC(=O)N1c2ccc(-c3cccc(NS(=O)(=O)N(C)C)c3)cc2N(C(=O)OC(C)C)C[C@@H]1C [Example I-1146] | 
< 100 | < 100 | < 50 | CC(=O)N1c2ccc(-c3cnn(C4CCOCC4)c3)cc2N(C(=O)OC2CCCC2)C[C@@H]1C [Example I-1147] | 
100 to 1000 | 100 to 500 | < 50 | CC(=O)N1c2ccc(-c3cnn(C4CCCS(=O)(=O)C4)c3)cc2N(C(=O)OC2CCCC2)C[C@@H]1C (stereo partly drawn) [Example I-1148] | 
100 to 1000 | 100 to 500 | 50 to 500 | CC(=O)N1c2ccc(-c3cccc(N4CCCS4(=O)=O)c3)cc2N(C(=O)OC(C)C)C[C@@H]1C [Example I-1153] | 
100 to 1000 | > 500 | 50 to 500 | CCOC(=O)N1C[C@H](C)N(C(C)=O)c2ccc(-c3ccc(N4CCCS4(=O)=O)c(F)c3)cc21 [Example I-1155] | 
100 to 1000 | 100 to 500 | 50 to 500 | CC(=O)N1c2ccc(-c3ccc(N4CCCS4(=O)=O)c(F)c3)cc2N(C(=O)OC(C)C)C[C@@H]1C [Example I-1156] | 
100 to 1000 | 100 to 500 | < 50 | CC(=O)N1c2ccc(-c3ccc4c(c3)CCCN4S(C)(=O)=O)cc2N(C(=O)C2CC2)C[C@@H]1C [Example I-1157] | 
100 to 1000 | > 500 | 50 to 500 | CC(=O)N1c2ccc(-c3ccc4c(c3)CCCN4S(C)(=O)=O)cc2N(C(=O)C2CCC2)C[C@@H]1C [Example I-1158] | 
100 to 1000 | 100 to 500 | 50 to 500 | CCOC(=O)N1C[C@H](C)N(C(C)=O)c2ccc(-c3ccc4c(c3)CCCN4S(C)(=O)=O)cc21 [Example I-1159] | 
100 to 1000 | 100 to 500 | 50 to 500 | CC(=O)N1c2ccc(-c3ccc4c(c3)CCCN4S(C)(=O)=O)cc2N(C(=O)OC(C)C)C[C@@H]1C [Example I-1160] | 
100 to 1000 | > 500 | 50 to 500 | CCOC(=O)N1C[C@H](C)N(C(C)=O)c2ccc(-c3cccc(N4CCCS4(=O)=O)c3)cc21 [Example I-1162] | 
